Test results taken from ChEMBL document CHEMBL4610061, “Identification of novel GPR81 agonist lead series for target biology evaluation” (Bioorg Med Chem Lett, 2020).
≈ marks a conversion by molar mass, not a printed value. Calls of active or inactive are those of the source. The rule behind the calls is not given here.

Experiments:
[1] = molecular target: T1, Hydroxycarboxylic acid receptor 1 (Homo sapiens, UniProt Q9BXC0); test: Agonist activity at human GPR81 overexpressed in CHO cells assessed as inhibition of forskolin-stimulated cAMP production at 10 uM relative to control; format: functional, cell-based
T1 sequence (Q9BXC0 whole entry): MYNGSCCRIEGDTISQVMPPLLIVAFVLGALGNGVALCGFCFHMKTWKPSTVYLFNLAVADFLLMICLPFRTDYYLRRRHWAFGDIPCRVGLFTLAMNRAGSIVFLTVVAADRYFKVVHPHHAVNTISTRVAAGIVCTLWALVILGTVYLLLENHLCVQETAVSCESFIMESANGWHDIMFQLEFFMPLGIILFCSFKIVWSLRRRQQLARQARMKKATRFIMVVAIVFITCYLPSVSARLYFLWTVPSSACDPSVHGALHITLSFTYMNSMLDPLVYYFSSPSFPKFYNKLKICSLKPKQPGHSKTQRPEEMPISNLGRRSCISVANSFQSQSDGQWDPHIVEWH

[2] = Distribution coefficient, logD of compound at pH 7.4; format: physicochemical; details: octanol/water
[3] = molecular target: T1, Hydroxycarboxylic acid receptor 1; test: Agonist activity at human GPR81 overexpressed in CHO cells assessed as inhibition of forskolin-stimulated cAMP production; format: functional, cell-based
[4] = molecular target: Hydroxycarboxylic acid receptor 2 (Homo sapiens, UniProt Q8TDS4); test: Agonist activity at human GPR109A receptor
Chain of Hydroxycarboxylic acid receptor 2 (Q8TDS4 whole entry): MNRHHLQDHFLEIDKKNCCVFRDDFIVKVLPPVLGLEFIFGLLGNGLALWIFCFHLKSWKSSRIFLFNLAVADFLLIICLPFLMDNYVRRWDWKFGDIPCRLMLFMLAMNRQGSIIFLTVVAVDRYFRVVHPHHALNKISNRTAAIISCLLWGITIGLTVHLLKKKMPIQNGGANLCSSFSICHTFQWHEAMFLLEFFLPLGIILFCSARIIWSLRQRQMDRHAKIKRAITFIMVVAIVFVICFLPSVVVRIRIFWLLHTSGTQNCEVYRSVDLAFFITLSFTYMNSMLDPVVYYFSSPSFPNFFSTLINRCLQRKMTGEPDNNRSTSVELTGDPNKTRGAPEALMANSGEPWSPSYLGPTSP

Homo sapiens = species on record: Homo sapiens; test: Selectivity index, ratio of IC50 for displacement of [125I]-ghrelin from human GHS-R1a stably expressed in HEK cell membrane measured after 60 mins by gamma counter method to EC50 for agonist activity at human GPR81 overexpressed in CHO cells assessed as inhibition of forskolin-stimulated cAMP production; format: cell membranes
[5] = molecular target: Growth hormone secretagogue receptor type 1 (Homo sapiens, UniProt Q92847); test: Displacement of [125I]-ghrelin from human GHS-R1a stably expressed in HEK cell membrane measured after 60 mins by gamma counter method; format: cell membranes
Chain of Growth hormone secretagogue receptor type 1 (Q92847 whole entry): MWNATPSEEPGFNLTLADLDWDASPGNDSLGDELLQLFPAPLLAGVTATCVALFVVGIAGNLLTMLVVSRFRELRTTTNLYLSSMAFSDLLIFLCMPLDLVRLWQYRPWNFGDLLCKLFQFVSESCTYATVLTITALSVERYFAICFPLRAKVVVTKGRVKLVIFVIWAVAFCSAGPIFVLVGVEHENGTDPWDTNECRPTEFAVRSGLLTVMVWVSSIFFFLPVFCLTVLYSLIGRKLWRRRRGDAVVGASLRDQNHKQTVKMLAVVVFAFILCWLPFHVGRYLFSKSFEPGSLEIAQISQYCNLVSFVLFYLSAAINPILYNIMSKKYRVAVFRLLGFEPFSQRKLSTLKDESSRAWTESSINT

[6] = Solubility of compound; format: physicochemical
[7] = molecular target: T2, Protein Gpr81 (Rattus norvegicus) (UniProt G3V906); test: Agonist activity at rat GPR81 overexpressed in HEK293 cells by [35S]GTPgammaS binding assay; format: cell-based
T2 sequence (whole entry): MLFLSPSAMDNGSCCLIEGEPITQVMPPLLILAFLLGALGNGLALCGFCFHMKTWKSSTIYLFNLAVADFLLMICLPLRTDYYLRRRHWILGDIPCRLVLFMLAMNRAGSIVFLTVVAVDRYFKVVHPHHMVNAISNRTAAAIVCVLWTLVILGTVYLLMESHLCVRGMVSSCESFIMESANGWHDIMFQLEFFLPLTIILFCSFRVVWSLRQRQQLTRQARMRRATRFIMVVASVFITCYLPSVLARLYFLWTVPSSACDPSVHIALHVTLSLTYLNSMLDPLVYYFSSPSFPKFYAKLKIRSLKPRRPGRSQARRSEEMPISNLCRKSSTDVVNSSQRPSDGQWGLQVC

SMILES	Efficacy [1]	logD [2]	EC50 [3]	EC50 [4]	Ratio IC50/EC50 (Homo sapiens)	IC50 [5]	solubility [6]	Activity [7]
CN1CCC(S(=O)(=O)c2ccc3nc(NC(=O)NC(=O)c4cc(-n5cccn5)ccc4Cl)sc3c2)CC1	74%	2.3	7000 nM	–	–	–	–	–
CCOc1cc(C)c(C(=O)NC(=O)Nc2nc3ccc(CN4CCN(C)CC4)cc3s2)cc1N1CCOCC1	–	2.9	> 3700 nM	–	–	–	–	–
CCOc1cc(Cl)c(C(=O)Nc2nc3ccc(S(=O)(=O)CCCN4CCN(C)CC4)cc3s2)cc1N1C[C@@H](C)O[C@@H](C)C1	–	2.7	54 nM	660 nM	500	27000 nM	95 µM (≈ 61.8 µg/mL)	–
CCOc1cc(Cl)c(C(=O)NC(=O)Nc2nc3ccc(CN4CCN(C)CC4)cc3s2)cc1N1CCO[C@H](C)C1	–	3.3	32 nM	–	–	–	–	–
CN1CCC(S(=O)(=O)c2ccc3nc(NC(=O)NC(=O)c4cc(-n5cccn5)c(F)cc4Cl)sc3c2)CC1	70%	2.4	3600 nM	–	–	–	–	–
CCOc1cc(Cl)c(C(=O)NC(=O)Nc2nc3c(s2)CN(C(C)=O)CC3)cc1N1CCOCC1	–	2.3	719 nM	–	–	–	–	–
CCOc1cc(Cl)c(C(=O)NC(=O)Nc2nc3ccc(CN4CCN(C)CC4)cc3s2)cc1N1CCOCC1	–	2.9	74 nM	2160 nM	–	960 nM	4 µM (≈ 2.29 µg/mL)	Active
CCOc1cc(Cl)c(-c2ccc(-c3nc4c(s3)CN(C(=O)CO)CC4)c(=O)[nH]2)cc1N1CCOCC1	–	2.4	22 nM	910 nM	–	1900 nM	7 µM (≈ 3.72 µg/mL)	–
CCOc1cc(Cl)c(-c2ccc(-c3nc4ccc(S(=O)(=O)C5CCN(C)CC5)cc4s3)c(=O)[nH]2)cc1N1CCOCC1	–	3.4	5 nM	37 nM	–	460 nM	< 0.5 µM	–
CCOc1cc(Cl)c(C(=O)NC(=O)Nc2nc3ccccc3s2)cc1N1CCOCC1	–	4	299 nM	–	–	–	–	–
CCOc1cc(Cl)c(C(=O)NC(=O)Nc2nc3ccc(CN4CCN(C)CC4)cc3s2)cc1-n1cccc1	–	4	22 nM	–	–	–	–	–
CCOc1cc(Cl)c(C(=O)NC(=O)Nc2nc3ccc(CN4CCN(C)CC4)cc3s2)cc1-n1cccn1	–	3.8	19 nM	–	–	–	–	–
CCOc1cc(Cl)c(-c2ccc(-c3nc4ccccc4s3)c(=O)[nH]2)cc1N1CCOCC1	–	> 3.8	21 nM	610 nM	–	1300 nM	< 0.7 µM	–
CCOc1cc(Cl)c(C(=O)NC(=O)Nc2ncc(-c3ccccc3)s2)cc1N1CCOCC1	–	4.2	103 nM	–	–	–	–	–
CCOc1cc(Cl)c(-c2ccc(-c3nc4c(s3)CN(C(=O)COC)CC4)c(=O)[nH]2)cc1N1CCOCC1	–	2.6	75 nM	1900 nM	–	> 50000 nM	29 µM (≈ 15.8 µg/mL)	–
CCOc1cc(Cl)c(C(=O)NC(=O)Nc2nc3ccc(CN4CCN(C)CC4)cc3s2)cc1N1CCCC1	–	4	13 nM	–	–	–	–	–
CCOc1cc(Cl)c(C(=O)NC(=O)Nc2ncc(C)s2)cc1N1CCOCC1	–	3.2	769 nM	–	–	–	–	–
CCOc1cc(Cl)c(C(=O)Nc2nc3ccc(S(=O)(=O)CCCN4CCN(C)CC4)cc3s2)cc1N1CCO[C@H](C)C1	–	2.4	160 nM	1400 nM	> 80	21000 nM	470 µM (≈ 299 µg/mL)	–
CCOc1cc(Cl)c(CNC(=O)Nc2nc3ccc(CN4CCN(C)CC4)cc3s2)cc1N1CCOCC1	–	3.2	> 33000 nM	–	–	> 4970 nM	188 µM (≈ 105 µg/mL)	–

SMILES	Efficacy [1]	logD [2]	EC50 [3]	EC50 [4]	Ratio IC50/EC50 (Homo sapiens)	IC50 [5]	solubility [6]	Activity [7]
CCOc1cc(Cl)c(C(=O)Nc2nc3ccc(CN4CCN(C)CC4)cc3s2)cc1N1CCOCC1	–	2.8	410 nM	> 11000 nM	> 80	> 50000 nM	1.5 µM (≈ 0.795 µg/mL)	–
CCOc1ccc(C(=O)NC(=O)Nc2nc3ccc(CN4CCN(C)CC4)cc3s2)c(Cl)c1	–	3.4	560 nM	–	–	–	–	–
CCOc1cc(Cl)c(C(=O)Nc2nc3ccc(S(=O)(=O)CCCN4CCN(C)CC4)cc3s2)cc1N1CCOCC1	–	2	600 nM	> 6300 nM	> 80	> 50000 nM	323 µM (≈ 201 µg/mL)	–
CCOc1cc(Cl)c(C(=O)Nc2nc3ccc(S(=O)(=O)CCCN4CCN(C)CC4)cc3s2)cc1N1C[C@H](C)O[C@@H](C)C1	–	3	270 to 350 nM	1400 to 3200 nM	> 80	10000 to 14000 nM	155 to 231 µM (≈ 101 to 150 µg/mL)	–
CCOc1cc(Cl)c(NC(=O)Nc2nc3ccc(CN4CCN(C)CC4)cc3s2)cc1N1CCOCC1	–	–	> 33000 nM	–	–	> 50000 nM	20 µM (≈ 10.9 µg/mL)	–
CCOc1cc(Cl)c(C(=O)N(C)C(=O)Nc2nc3ccc(CN4CCN(C)CC4)cc3s2)cc1N1CCOCC1	–	2.5	> 16000 nM	–	–	> 50000 nM	492 µM (≈ 289 µg/mL)	–
CCOc1cc(Cl)c(C(=O)Nc2nc3ccc(OC4CCN(C)CC4)cc3s2)cc1N1CCOCC1	–	2.9	110 nM	1600 nM	> 80	> 30000 nM	5 µM (≈ 2.66 µg/mL)	–
CCOc1cc(Cl)c(C(=O)Nc2nc3ccc(S(=O)(=O)C4CCN(C)CC4)cc3s2)cc1N1CCOCC1	–	2.5	740 nM	> 9000 nM	> 80	> 50000 nM	1 µM (≈ 0.579 µg/mL)	–
CCOc1cc(Cl)c(C(=O)NC(=O)Nc2cc3ccccc3s2)cc1N1CCOCC1	–	4.4	260 nM	–	–	–	–	–
CCOc1cc(C(F)(F)F)c(C(=O)NC(=O)Nc2nc3ccc(CN4CCN(C)CC4)cc3s2)cc1N1CCOCC1	–	3.3	1400 nM	–	–	–	–	–
Cc1cc(Cl)c(C(=O)NC(=O)Nc2nc3ccc(S(=O)(=O)C4CCN(C)CC4)cc3s2)cc1-n1cccn1	70%	2.5	6100 nM	–	–	–	–	–
CCOc1cc(Cl)c(-c2ncc(-c3nc4ccccc4s3)c(=O)[nH]2)cc1N1CCOCC1	–	3.9	490 nM	> 22000 nM	–	5200 nM	< 0.31 µM	–
CCOc1cc(Cl)c(C(=O)NC(=O)Nc2nc3ccc(S(=O)(=O)C4CCN(C)CC4)cc3s2)cc1N1CCOCC1	–	2.2	166 nM	–	–	–	–	–
CCOc1cc(Cl)c(C(=O)NC(=O)Nc2nc3c(s2)CN(C(=O)CO)CC3)cc1N1CCOCC1	–	1.7	895 nM	–	–	–	–	–
CCOc1ccc(C(=O)NC(=O)Nc2nc3ccc(CN4CCN(C)CC4)cc3s2)cc1N1CCOCC1	47%	3	740 nM	–	–	–	–	–
CCOc1cc(Cl)c(C(=O)Nc2nc3ccccc3s2)cc1N1CCOCC1	–	4.3	1900 nM	12000 nM	> 80	> 50000 nM	0.09 µM (≈ 0.0376 µg/mL)	–
CCOc1cc(Cl)c(-c2ncc(-c3nc4ccc(S(=O)(=O)C5CCN(C)CC5)cc4s3)c(=O)[nH]2)cc1N1CCOCC1	–	1.6	240 nM	1600 nM	–	> 18000 nM	61 µM (≈ 38.4 µg/mL)	–
CCOc1cc(Cl)c(C(=O)NC(=O)Nc2nc3c(s2)CCCC3)cc1N1CCOCC1	–	–	120 nM	–	–	–	–	–
CCOc1cc(Cl)c(C(=O)NC(=O)Nc2nc3ccc(CN4CCN(C)CC4)cc3s2)cc1-c1ccn[nH]1	–	3.9	360 nM	–	–	–	–	–
